Values after ≈ are worked out from the molar mass of the structure shown.
What was measured:
[1] = Intrinsic aqueous solubility of the compound in citrate buffer at pH 6 by HPLC-UV/MS analysis
[2] = target: Tyrosine-protein kinase ABL1 (Homo sapiens, UniProt P00519)
Description: Inhibition of ABL1 (unknown origin) incubated for 45 to 120 mins in presence of ATP by Kinase-Glo luminescent assay

[3] = target: Aurora kinase B (Homo sapiens, UniProt Q96GD4)
Description: Inhibition of AURKB (unknown origin) incubated for 45 to 120 mins in presence of ATP by Kinase-Glo luminescent assay

[4] = target: Vascular endothelial growth factor receptor 2 (Homo sapiens, UniProt P35968)
Description: Inhibition of KDR (unknown origin) incubated for 45 to 120 mins in presence of ATP by Kinase-Glo luminescent assay

[5] = target: Glycogen synthase kinase-3 beta (Homo sapiens, UniProt P49841)
Description: Inhibition of GSK3B (unknown origin) incubated for 45 to 120 mins in presence of ATP by Kinase-Glo luminescent assay

[6] = target: Tyrosine-protein kinase JAK2 (Homo sapiens, UniProt O60674)
Description: Inhibition of JAK2 (unknown origin) incubated for 45 to 120 mins in presence of ATP by Kinase-Glo luminescent assay

[7] = target: T1, Tyrosine-protein kinase JAK3 (Homo sapiens, UniProt P52333)
T1 sequence (P52333 whole entry): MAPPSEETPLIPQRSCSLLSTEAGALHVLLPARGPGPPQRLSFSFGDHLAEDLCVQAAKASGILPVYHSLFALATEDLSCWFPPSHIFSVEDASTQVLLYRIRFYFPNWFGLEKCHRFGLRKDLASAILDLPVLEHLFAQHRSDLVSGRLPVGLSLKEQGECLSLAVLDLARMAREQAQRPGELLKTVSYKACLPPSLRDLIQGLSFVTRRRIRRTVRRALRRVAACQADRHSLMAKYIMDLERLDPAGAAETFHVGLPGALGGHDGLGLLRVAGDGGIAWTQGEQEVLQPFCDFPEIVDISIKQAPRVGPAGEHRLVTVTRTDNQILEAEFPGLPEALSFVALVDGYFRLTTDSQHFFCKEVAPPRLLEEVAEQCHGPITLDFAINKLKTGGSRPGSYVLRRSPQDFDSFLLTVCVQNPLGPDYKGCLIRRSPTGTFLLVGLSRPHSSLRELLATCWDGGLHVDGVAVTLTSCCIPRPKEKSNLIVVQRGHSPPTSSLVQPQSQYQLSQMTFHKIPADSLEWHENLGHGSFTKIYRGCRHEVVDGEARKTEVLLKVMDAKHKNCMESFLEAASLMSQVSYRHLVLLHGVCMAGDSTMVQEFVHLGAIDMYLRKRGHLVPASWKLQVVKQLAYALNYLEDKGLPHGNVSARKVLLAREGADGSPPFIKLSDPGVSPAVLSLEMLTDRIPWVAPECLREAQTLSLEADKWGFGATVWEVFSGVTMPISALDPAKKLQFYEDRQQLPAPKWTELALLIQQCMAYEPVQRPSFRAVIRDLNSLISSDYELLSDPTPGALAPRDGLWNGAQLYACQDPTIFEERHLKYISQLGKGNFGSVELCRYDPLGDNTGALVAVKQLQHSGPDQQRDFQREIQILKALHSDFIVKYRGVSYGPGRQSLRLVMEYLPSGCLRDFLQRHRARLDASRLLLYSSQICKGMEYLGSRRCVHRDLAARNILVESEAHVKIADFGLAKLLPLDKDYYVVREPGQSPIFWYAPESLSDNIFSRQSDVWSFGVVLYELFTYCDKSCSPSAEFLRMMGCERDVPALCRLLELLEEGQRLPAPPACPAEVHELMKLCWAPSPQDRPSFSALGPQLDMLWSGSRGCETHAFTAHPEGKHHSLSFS
Description: Inhibition of JAK3 (unknown origin) incubated for 45 to 120 mins in presence of ATP by Kinase-Glo luminescent assay

[8] = target: Tyrosine-protein kinase JAK1 (Homo sapiens, UniProt P23458); assay: Inhibition of JAK1 (unknown origin) incubated for 45 to 120 mins in presence of ATP by Kinase-Glo luminescent assay
[9] = target: Non-receptor tyrosine-protein kinase TYK2 (Homo sapiens, UniProt P29597)
Description: Inhibition of TYK2 (unknown origin) incubated for 45 to 120 mins in presence of ATP by Kinase-Glo luminescent assay

[10] = Dissociation constant, pKa of the compound by potentiometric titration method

Glycogen synthase kinase-3 beta, sequence (P49841 whole entry): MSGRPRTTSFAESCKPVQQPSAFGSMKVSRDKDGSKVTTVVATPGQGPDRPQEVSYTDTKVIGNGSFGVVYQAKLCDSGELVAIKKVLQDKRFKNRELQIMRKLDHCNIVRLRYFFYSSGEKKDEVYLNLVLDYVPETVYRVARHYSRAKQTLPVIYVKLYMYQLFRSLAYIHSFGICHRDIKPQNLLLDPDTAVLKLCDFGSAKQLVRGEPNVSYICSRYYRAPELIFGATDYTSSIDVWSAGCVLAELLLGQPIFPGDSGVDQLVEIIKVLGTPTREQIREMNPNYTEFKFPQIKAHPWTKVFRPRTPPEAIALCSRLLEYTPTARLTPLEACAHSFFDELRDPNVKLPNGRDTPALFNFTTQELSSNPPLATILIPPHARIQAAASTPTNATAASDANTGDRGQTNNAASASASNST
Non-receptor tyrosine-protein kinase TYK2, sequence (P29597 whole entry): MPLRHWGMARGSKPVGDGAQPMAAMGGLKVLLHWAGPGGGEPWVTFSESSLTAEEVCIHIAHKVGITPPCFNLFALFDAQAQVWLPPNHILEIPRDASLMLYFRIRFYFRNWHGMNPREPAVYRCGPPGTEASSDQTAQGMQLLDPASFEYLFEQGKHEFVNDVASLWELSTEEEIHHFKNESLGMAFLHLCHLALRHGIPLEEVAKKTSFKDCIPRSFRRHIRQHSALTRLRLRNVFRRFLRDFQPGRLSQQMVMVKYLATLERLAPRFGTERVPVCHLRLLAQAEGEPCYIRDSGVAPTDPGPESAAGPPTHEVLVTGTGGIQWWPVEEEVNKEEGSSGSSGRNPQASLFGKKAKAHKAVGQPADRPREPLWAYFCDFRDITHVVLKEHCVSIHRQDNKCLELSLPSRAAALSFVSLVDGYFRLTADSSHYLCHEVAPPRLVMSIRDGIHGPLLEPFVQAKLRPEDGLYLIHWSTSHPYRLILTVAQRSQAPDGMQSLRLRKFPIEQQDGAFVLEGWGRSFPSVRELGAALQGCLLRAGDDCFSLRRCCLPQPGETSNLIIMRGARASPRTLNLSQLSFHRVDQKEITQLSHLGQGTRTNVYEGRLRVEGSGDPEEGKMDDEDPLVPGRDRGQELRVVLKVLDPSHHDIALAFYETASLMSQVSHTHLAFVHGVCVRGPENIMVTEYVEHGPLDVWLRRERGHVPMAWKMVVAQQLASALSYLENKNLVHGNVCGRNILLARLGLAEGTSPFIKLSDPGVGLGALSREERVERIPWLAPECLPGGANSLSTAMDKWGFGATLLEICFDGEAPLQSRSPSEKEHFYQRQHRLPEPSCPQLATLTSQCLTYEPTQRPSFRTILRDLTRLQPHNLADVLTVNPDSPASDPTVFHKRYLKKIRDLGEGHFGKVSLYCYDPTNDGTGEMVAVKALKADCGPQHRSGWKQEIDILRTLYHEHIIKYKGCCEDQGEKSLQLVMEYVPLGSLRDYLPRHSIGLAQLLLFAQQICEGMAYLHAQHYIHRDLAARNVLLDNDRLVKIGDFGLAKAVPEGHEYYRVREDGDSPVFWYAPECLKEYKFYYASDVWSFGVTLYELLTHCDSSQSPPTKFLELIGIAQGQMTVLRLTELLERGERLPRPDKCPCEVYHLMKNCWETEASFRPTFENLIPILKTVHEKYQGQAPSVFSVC
Vascular endothelial growth factor receptor 2, sequence (P35968 whole entry): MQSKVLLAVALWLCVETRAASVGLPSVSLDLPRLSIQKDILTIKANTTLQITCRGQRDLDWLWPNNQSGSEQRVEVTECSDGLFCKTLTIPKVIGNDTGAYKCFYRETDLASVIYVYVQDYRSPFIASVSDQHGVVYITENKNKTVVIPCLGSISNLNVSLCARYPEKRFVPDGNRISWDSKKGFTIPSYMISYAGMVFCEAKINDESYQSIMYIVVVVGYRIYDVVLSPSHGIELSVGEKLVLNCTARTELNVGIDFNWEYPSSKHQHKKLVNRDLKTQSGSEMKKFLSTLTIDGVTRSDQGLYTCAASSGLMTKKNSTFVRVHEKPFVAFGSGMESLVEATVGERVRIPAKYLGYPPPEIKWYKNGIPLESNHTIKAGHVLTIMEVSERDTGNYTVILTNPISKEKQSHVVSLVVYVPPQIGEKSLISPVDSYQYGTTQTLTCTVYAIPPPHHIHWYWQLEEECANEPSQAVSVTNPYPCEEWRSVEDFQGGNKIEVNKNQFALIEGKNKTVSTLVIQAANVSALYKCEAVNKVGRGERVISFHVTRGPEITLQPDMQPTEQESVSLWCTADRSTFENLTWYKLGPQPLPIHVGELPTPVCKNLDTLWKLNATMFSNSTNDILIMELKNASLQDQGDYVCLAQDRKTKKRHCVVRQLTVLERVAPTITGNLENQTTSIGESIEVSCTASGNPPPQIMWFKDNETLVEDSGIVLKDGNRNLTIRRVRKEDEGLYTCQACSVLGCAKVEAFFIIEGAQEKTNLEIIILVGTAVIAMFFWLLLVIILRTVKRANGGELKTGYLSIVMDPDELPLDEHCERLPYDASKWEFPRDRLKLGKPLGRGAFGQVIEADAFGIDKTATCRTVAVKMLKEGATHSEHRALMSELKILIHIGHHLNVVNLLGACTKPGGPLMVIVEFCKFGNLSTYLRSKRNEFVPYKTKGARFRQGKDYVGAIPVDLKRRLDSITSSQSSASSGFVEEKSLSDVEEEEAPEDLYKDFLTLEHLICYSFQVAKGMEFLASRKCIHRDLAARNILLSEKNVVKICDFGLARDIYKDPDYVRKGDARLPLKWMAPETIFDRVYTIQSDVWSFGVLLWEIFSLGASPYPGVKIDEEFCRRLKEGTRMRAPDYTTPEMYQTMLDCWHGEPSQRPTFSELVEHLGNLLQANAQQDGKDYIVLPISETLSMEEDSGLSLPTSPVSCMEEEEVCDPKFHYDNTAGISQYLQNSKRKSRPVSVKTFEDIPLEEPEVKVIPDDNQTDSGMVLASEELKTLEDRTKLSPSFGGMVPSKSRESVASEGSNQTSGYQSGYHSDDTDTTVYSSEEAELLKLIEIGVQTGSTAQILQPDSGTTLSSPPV
Tyrosine-protein kinase JAK1, sequence (P23458 whole entry): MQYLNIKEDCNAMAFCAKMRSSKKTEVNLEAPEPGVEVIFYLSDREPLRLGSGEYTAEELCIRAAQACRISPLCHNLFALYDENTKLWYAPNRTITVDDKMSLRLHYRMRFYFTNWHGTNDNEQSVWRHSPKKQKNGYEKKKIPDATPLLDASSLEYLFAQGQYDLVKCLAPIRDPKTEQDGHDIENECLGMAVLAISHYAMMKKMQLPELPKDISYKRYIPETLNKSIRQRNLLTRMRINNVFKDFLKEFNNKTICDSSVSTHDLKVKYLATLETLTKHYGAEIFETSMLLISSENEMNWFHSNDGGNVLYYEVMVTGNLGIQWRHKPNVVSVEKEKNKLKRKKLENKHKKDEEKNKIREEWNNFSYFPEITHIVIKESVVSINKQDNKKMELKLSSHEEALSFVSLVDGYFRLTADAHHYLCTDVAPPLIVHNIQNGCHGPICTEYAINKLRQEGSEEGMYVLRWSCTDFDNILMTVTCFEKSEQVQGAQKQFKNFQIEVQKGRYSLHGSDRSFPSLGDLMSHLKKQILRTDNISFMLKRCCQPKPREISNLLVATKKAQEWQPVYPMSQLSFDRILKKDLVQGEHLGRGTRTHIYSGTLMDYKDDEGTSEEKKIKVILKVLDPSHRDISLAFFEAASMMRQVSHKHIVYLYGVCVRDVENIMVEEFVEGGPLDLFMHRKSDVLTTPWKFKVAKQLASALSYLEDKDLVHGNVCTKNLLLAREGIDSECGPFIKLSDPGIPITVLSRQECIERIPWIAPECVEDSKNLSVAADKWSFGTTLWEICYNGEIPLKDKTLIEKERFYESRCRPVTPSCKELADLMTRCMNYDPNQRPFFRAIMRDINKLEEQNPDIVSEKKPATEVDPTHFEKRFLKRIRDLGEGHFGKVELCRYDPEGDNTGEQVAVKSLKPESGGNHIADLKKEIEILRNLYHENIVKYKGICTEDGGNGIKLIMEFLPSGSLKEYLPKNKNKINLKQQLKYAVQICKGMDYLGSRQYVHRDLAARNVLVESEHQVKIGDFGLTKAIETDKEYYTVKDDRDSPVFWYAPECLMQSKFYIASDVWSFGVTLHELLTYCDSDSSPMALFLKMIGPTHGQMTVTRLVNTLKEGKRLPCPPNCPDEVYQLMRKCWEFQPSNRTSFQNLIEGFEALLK
Aurora kinase B, sequence (Q96GD4 whole entry): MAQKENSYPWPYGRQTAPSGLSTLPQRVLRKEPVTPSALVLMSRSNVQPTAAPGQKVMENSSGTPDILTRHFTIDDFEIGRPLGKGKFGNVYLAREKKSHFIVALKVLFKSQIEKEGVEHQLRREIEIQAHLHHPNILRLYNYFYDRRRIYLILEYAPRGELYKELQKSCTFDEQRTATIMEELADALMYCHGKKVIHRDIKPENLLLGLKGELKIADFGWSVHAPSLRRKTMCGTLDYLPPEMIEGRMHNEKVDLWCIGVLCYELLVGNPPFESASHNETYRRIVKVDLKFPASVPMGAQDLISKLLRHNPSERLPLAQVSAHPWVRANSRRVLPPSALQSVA

Row | SMILES | solubility [1] | IC50 [2] | IC50 [3] | IC50 [4] | IC50 [5] | IC50 [6] | IC50 [7] | IC50 [8] | IC50 [9] | pKa [10]
1 | Cc1cnc(NCCN2CCOCC2)nc1-c1cnn(CCC#N)c1 | – | – | – | – | – | 19500 nM | 50000 nM | 50000 nM | – | –
2 | Cc1cnc(NC2CCOCC2)nc1-c1cnn(CCC#N)c1 | 390 µM (≈ 122 µg/mL) | – | – | – | – | 41900 nM | 50000 nM | 50000 nM | 50000 nM | –
3 | Cc1cc(Nc2ncc(C)c(N3CC(CCC#N)C3)n2)sn1 | – | 568 nM | 3 nM | – | – | 13 nM | – | – | – | –
4 | Cc1cc(Nc2ncc(C)c(N3CC(CC#N)(OC4CC5(CC5)C4)C3)n2)sn1 | – | 10300 nM | 187 nM | – | – | 8 nM | – | – | – | –
5 | Cc1cc(Nc2ncc(Cl)c(-c3cnn(CCC#N)c3)n2)sn1 | – | – | – | – | – | – | – | 3 nM | 1.5 nM | –
6 | Cc1cc(Nc2cc(-c3cnn(CCC#N)c3)c(Cl)cn2)sn1 | – | – | – | – | – | – | – | 50000 nM | 50000 nM | –
7 | Cc1cnc(Nc2ccccc2)nc1-c1cnn(CCC#N)c1 | 52 µM (≈ 15.8 µg/mL) | – | – | – | – | 6 nM | 143 nM | 50 nM | 11 nM | –
8 | Cn1cc(Nc2nccc(-c3cnn(CCC#N)c3)n2)cn1 | – | – | – | – | – | 27 nM | – | 538 nM | 49 nM | –
9 | Cc1cc(Nc2ncc(C)c(N3CC(CC#N)C3)n2)sn1 | – | – | 6 nM | – | – | 9 nM | – | – | – | –
10 | Cc1cnc(Nc2cnn(C)c2)nc1-c1cnn(CCC#N)c1 | 69 µM (≈ 21.3 µg/mL) | – | – | – | – | – | 55 nM | 12 nM | 3.4 nM | –
11 | Cc1cnc(Nc2cnn(C)c2)nc1N1CC(CC#N)(N2CCN(C)CC2)C1 | – | 50000 nM | 764 nM | – | – | 34 nM | – | – | – | –
12 | Cc1cc(Nc2ncc(C)c(N3CC(CC#N)(N4CCN(C)CC4)C3)n2)sn1 | – | 21400 nM | 441 nM | – | – | – | 70 nM | – | 2.9 nM | –
13 | Cc1cc(Nc2ncc(C)c(N3CC(CC#N)(N4CCCC4)C3)n2)sn1 | – | – | 22 nM | – | – | – | – | – | – | –
14 | Cc1cnc(Nc2cnn(C)c2)nc1N1CC2CCCC(C1)N2CC#N | 7090 µM (≈ 2500 µg/mL) | 16800 nM | 913 nM | 7390 nM | 36400 nM | 61 nM | – | – | – | –
15 | Cc1cc(Nc2ncc(C)c(N3CCC(CC#N)CC3)n2)sn1 | – | – | 1.1 nM | – | – | – | – | – | – | –

Further compounds by falling IC50 [6], results first:

Row | solubility [1] | IC50 [2] | IC50 [3] | IC50 [4] | IC50 [5] | IC50 [6] | IC50 [7] | IC50 [8] | IC50 [9] | pKa [10] | SMILES
16 | 35 µM (≈ 12.9 µg/mL) | 2030 nM | 364 nM | 1580 nM | 3240 nM | 5.4 nM | – | – | – | – | Cc1cc(Nc2ncc(C)c(N3CC4CCCC(C3)N4CC#N)n2)sn1
17 | – | 8430 nM | – | – | – | 4.4 nM | – | – | – | – | Cc1cc(Nc2ncc(C)c(N3CC(CC#N)(N4CCCCC4)C3)n2)sn1
18 | 11 µM (≈ 3.91 µg/mL) | 1310 nM | 4 nM | 221 nM | 1680 nM | 3.9 nM | – | – | – | – | Cc1cc(Nc2ncc(C)c(N3CC4CCC(C3)N4CC#N)n2)sn1
19 | 7 µM (≈ 2.31 µg/mL) | 467 nM | 1.5 nM | 41 nM | 1620 nM | 3.4 nM | – | – | – | – | Cc1cc(Nc2ncc(C)c(N3CCN(CC#N)CC3)n2)sn1
20 | – | – | 21 nM | – | – | 3.4 nM | – | – | – | – | Cc1cc(Nc2ncc(C)c(N3CC(C4CC4)C3)n2)sn1
21 | – | – | 19 nM | 936 nM | 9900 nM | 3.4 nM | 11 nM | 2 nM | 3.4 nM | – | Cc1cnc(Nc2cnn(C)c2)nc1N1CC2CCCC(C1)N2CCC#N
22 | 19 µM (≈ 6.53 µg/mL) | 1240 nM | 3 nM | 55 nM | 1360 nM | 3 nM | – | – | – | – | Cc1cc(Nc2ncc(C)c(N3CCN(CC#N)C(C)C3)n2)sn1 (stereo not given)
23 | – | 80 nM | 0.97 nM | – | – | 2.5 nM | – | – | – | – | Cc1cc(Nc2ncc(C)c(N3CC(O)(C4CC4)C3)n2)sn1
24 | 33500 µM (≈ 13500 µg/mL) | – | – | – | – | 2 nM | 16 nM | 13 nM | 2 nM | – | Cc1cnc(Nc2ccc(N3CCN(C)CC3)cc2)nc1-c1cnn(CCC#N)c1
25 | – | 207 nM | 2.5 nM | – | – | 2 nM | 14 nM | 3 nM | 1.5 nM | – | Cc1cc(Nc2ncc(C)c(-c3cnn(CCC#N)c3)n2)sn1
26 | 13 µM (≈ 5.06 µg/mL) | – | – | – | – | 2 nM | 18 nM | 15 nM | 2 nM | 4.2 | Cc1cnc(Nc2ccc(N3CCOCC3)cc2)nc1-c1cnn(CCC#N)c1
27 | 16 µM (≈ 5.5 µg/mL) | 228 nM | 22 nM | 30 nM | 2200 nM | 1.5 nM | – | – | – | – | Cc1cc(Nc2ncc(C)c(N3CCN(CC#N)[C@@H](C)C3)n2)sn1
28 | – | 351 nM | 7 nM | – | 395 nM | 0.98 nM | 3.4 nM | 0.99 nM | 0.98 nM | – | Cc1cnc(Nc2cnn(C)c2)nc1-c1cnn([C@H](CC#N)C2CCCC2)c1
29 | – | – | 1.5 nM | 96 nM | 311 nM | 0.98 nM | – | – | – | – | Cc1cc(Nc2ncc(C)c(N3CC4CCC(C3)N4CCC#N)n2)sn1
30 | 11 µM (≈ 4.22 µg/mL) | 537 nM | 2.5 nM | 109 nM | 565 nM | 0.98 nM | – | – | – | – | Cc1cc(Nc2ncc(C)c(N3CC4CCCC(C3)N4CCC#N)n2)sn1

Reference: ChEMBL document CHEMBL5331110, “Eyes on Topical Ocular Disposition: The Considered Design of a Lead Janus Kinase (JAK) Inhibitor That Utilizes a Unique Azetidin-3-Amino Bridging Scaffold to Attenuate Off-Target Kinase Activity, While Driving Potency and Aqueous Solubility” (J Med Chem, 2023)
